Some test systems named below: ACHN; DLD-1; HCT-15; K562; KM12; Malme-3M; NCI-H460; OVCAR-4; OVCAR-5; OVCAR-8; RXF 393; SK-MEL-28; U-251; UACC-62; A549; SK-MEL-5; SW-620.
Common to all, as to experiment: NCI-60 cell line screen, 48 h

Structures are written as SMILES.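 Cultured in 96-well plates, cells were exposed to test compound for 48 hours across five concentrations. At the GI50, growth is halved.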 Activity calls are given as the source filed them. No stated cut-off is given here; in the data, active = GI50 up to about 1.1 µM and inactive = higher.

Turning to `Cc1cc(NS(=O)(=O)c2ccc(NC(=O)c3ccc(Cl)c4c(Nc5ccc(S(=O)(=O)N=C(N)N)cc5)c5ccccc5nc34)cc2)no1`, the GI50 is > 100 µM (inactive) with ACHN; > 100 µM (inactive) in the test on DLD-1; more than 100 µM in the test with HCT-15; 39 µM (inactive) in the test with K562; 40.6 µM (inactive) in the test on KM12; > 100 µM (inactive) with Malme-3M. Further, the GI50 in the test on NCI-H460 is > 100 µM (inactive); with OVCAR-4, 68.5 µM (inactive); with OVCAR-5, > 100 µM (inactive); in the test on OVCAR-8, 38.2 µM (inactive); in the test on RXF 393, 19.2 µM (inactive); in the test on SK-MEL-28 it was 87.5 µM (inactive). For the same compound, the values for the GI50 in the test with U-251 and with UACC-62 were 18 µM (inactive) and 44.3 µM (inactive), respectively.

Regarding `COc1ccc(C(=O)C(C(=O)C(=O)Nc2ccc(Cl)c(Cl)c2)c2ccc(OC)cc2)cc1` (stereo unspecified), the GI50 with A549 is > 100 µM (inactive); in the test with ACHN it was > 100 µM (inactive); with DLD-1, > 100 µM (inactive); in the test on HCT-15, more than 100 µM; in the test with K562, > 100 µM (inactive); in the test on KM12 it was > 100 µM (inactive). Also, the GI50 with Malme-3M, with NCI-H460, in the test with OVCAR-4, in the test on OVCAR-5, with OVCAR-8 and with RXF 393 was > 100 µM (inactive) throughout. Besides, the GI50 in the test with SK-MEL-28, in the test with SK-MEL-5, in the test with SW-620, in the test on U-251 and with UACC-62 was > 100 µM (inactive) each time.

`Cc1ccc(C2=Nc3ccccc3SC(c3cccc4c3OCO4)C2)cc1` (stereo unspecified): the GI50 in the test on A549 is 23.9 µM (inactive); in the test on ACHN, 20.4 µM (inactive); in the test with DLD-1, 27.9 µM (inactive); in the test on HCT-15, 21.1 µM; with K562, 14.8 µM (inactive); in the test with KM12, 15.7 µM (inactive). For the same compound, the GI50 is 24.1 µM (inactive) with Malme-3M; 31.3 µM (inactive) in the test with NCI-H460; 15.5 µM (inactive) in the test on OVCAR-4; 21.8 µM (inactive) with OVCAR-5; 21.2 µM (inactive) in the test on OVCAR-8; > 10 µM (inactive) in the test with RXF 393. Besides, the GI50 in the test on SK-MEL-28 is 17.6 µM (inactive); with SK-MEL-5, 16.2 µM (inactive); in the test on SW-620 it was 19.1 µM (inactive); with UACC-62, 20.3 µM (inactive).

For `CCOc1cc2cnc3c4cc(OC)c(OC)cc4ccc3c2cc1OC`, the GI50 with A549 was > 100 µM (inactive); with ACHN, > 100 µM (inactive); with DLD-1, > 100 µM (inactive); in the test on HCT-15 it was more than 100 µM; in the test with K562 it was 20.7 µM (inactive); in the test with KM12, 46.9 µM (inactive). The GI50 is 90.4 µM (inactive) in the test with Malme-3M; > 100 µM (inactive) in the test with NCI-H460; 86.7 µM (inactive) in the test with OVCAR-4; > 100 µM (inactive) in the test with OVCAR-5; 43.4 µM (inactive) in the test with OVCAR-8; > 100 µM (inactive) in the test with RXF 393. The GI50 in the test on SK-MEL-28 was > 100 µM (inactive); in the test on SK-MEL-5, > 100 µM (inactive); with SW-620, > 100 µM (inactive); with U-251 it was 6.4 µM (inactive); in the test with UACC-62, > 100 µM (inactive).

As for `O=C(O)C1(c2ccccc2)CCCNCC1` (stereo unspecified), the GI50 in the test on A549 was > 100 µM (inactive); with ACHN it was > 100 µM (inactive); in the test on DLD-1, > 100 µM (inactive); in the test with HCT-15, more than 100 µM; with K562, > 100 µM (inactive); with KM12, > 100 µM (inactive). In addition, the GI50 in the test on Malme-3M, with NCI-H460, in the test on OVCAR-4, in the test with OVCAR-5, in the test on OVCAR-8 and in the test with RXF 393 was > 100 µM (inactive) throughout. In addition, the GI50 in the test with SK-MEL-28, with SK-MEL-5, in the test on SW-620, in the test with U-251 and with UACC-62 was > 100 µM (inactive) in each case.

As for `COc1cccc(-c2cc(O)c3ccccc3n2)c1`, the GI50 with A549 is 6.92 µM (inactive); in the test on ACHN it was 6.92 µM (inactive); in the test with DLD-1 it was 3.63 µM (inactive); with HCT-15, 4.7 µM; with K562, 4.72 µM (inactive); with KM12, 4.03 µM (inactive). For the same compound, the GI50 in the test with Malme-3M was 3.89 µM (inactive); in the test on NCI-H460 it was 4.59 µM (inactive); in the test with OVCAR-4, > 100 µM (inactive); in the test on OVCAR-5, 7.43 µM (inactive); with OVCAR-8, 6.24 µM (inactive); with RXF 393, 2.79 µM (inactive). In addition, the GI50 in the test with SK-MEL-28 was > 100 µM (inactive); with SK-MEL-5, 4.48 µM (inactive); in the test on SW-620 it was 3.28 µM (inactive); in the test with U-251, 9.53 µM (inactive); in the test on UACC-62, 4.06 µM (inactive).

In the case of `CP(C)C.[Ag][I]`, the GI50 in the test with A549 is > 100 µM (inactive); in the test on ACHN, > 100 µM (inactive); in the test on DLD-1 it was > 100 µM (inactive); in the test with HCT-15, more than 100 µM; with K562 it was > 100 µM (inactive); in the test on KM12, > 100 µM (inactive). Besides, the GI50 in the test with Malme-3M is 39.6 µM (inactive); in the test with NCI-H460, > 100 µM (inactive); in the test with OVCAR-4, 18.2 µM (inactive); in the test on OVCAR-5, > 100 µM (inactive); with OVCAR-8, 50 µM (inactive); with RXF 393, > 100 µM (inactive). The GI50 with SK-MEL-28 is 61.9 µM (inactive); in the test with SK-MEL-5, 15.4 µM (inactive); in the test on SW-620 it was > 100 µM (inactive); in the test on U-251, > 100 µM (inactive); in the test on UACC-62, > 100 µM (inactive).

Turning to `CCCCNC1=C(C(=O)OCC)C(=O)CO1`, the GI50 is > 100 µM (inactive) with A549; > 100 µM (inactive) with ACHN; > 100 µM (inactive) in the test with DLD-1; more than 100 µM in the test with HCT-15; > 100 µM (inactive) in the test with K562; > 100 µM (inactive) in the test with KM12. Moreover, the GI50 with Malme-3M, with NCI-H460, in the test on OVCAR-4, in the test on OVCAR-5, in the test with OVCAR-8 and with RXF 393 was > 100 µM (inactive) each time. Moreover, the GI50 in the test with SK-MEL-28, in the test with SK-MEL-5, in the test on SW-620, in the test with U-251 and in the test with UACC-62 was > 100 µM (inactive) each time.

For `OCn1nc2c(C3OCCO3)cc3ccccc3n2c1=S`, the GI50 is > 100 µM (inactive) in the test on A549; > 100 µM (inactive) in the test on ACHN; > 100 µM (inactive) with DLD-1; more than 100 µM in the test on HCT-15; > 100 µM (inactive) in the test with K562; > 100 µM (inactive) with KM12. Besides, the GI50 in the test with Malme-3M, with NCI-H460, in the test on OVCAR-4, in the test on OVCAR-5, with OVCAR-8 and with RXF 393 was > 100 µM (inactive) throughout. The GI50 in the test on SK-MEL-28, in the test on SK-MEL-5, in the test with SW-620, in the test with U-251 and in the test on UACC-62 was > 100 µM (inactive) in each case.

On to `CC(=O)OC1C(CCl)OC(N=[N+]=[N-])C(OC(C)=O)C1OC(C)=O` (stereo unspecified), for which the GI50 with A549 was > 100 µM (inactive); in the test on ACHN, > 100 µM (inactive); in the test with DLD-1 it was > 100 µM (inactive); with HCT-15 it was more than 100 µM; with K562, > 100 µM (inactive); in the test with KM12, > 100 µM (inactive). Further, the GI50 with Malme-3M, in the test with NCI-H460, in the test on OVCAR-4, in the test with OVCAR-8, in the test with RXF 393 and with SK-MEL-28 was > 100 µM (inactive) each time. Further, the GI50 with SK-MEL-5, in the test with SW-620, in the test on U-251 and with UACC-62 was > 100 µM (inactive) each time.

With `CC(C)=CCC/C(C)=C/CC/C(C)=C/Cc1c(O)c2ccccc2oc1=O`, the GI50 was 65.6 µM (inactive) in the test on A549; > 100 µM (inactive) in the test with ACHN; > 100 µM (inactive) with DLD-1; 69 µM in the test on HCT-15; 80.5 µM (inactive) in the test on K562; > 100 µM (inactive) in the test with KM12. In addition, the GI50 was > 100 µM (inactive) with Malme-3M; > 100 µM (inactive) in the test on NCI-H460; > 100 µM (inactive) with OVCAR-4; > 100 µM (inactive) in the test with OVCAR-8; 99.1 µM (inactive) in the test with RXF 393; > 100 µM (inactive) in the test with SK-MEL-28. The GI50 is > 100 µM (inactive) in the test on SW-620, 57.9 µM (inactive) in the test on U-251 and 63.7 µM (inactive) in the test on UACC-62.

For `Cc1nc(N)sc1C(=O)/C=C/c1ccc(/C=C/C(=O)c2sc(NC(=O)CCCCCCCCC(=O)Nc3nc(C)c(C(=O)/C=C/c4ccc(/C=C/C(=O)c5sc(N)nc5C)cc4)s3)nc2C)cc1`, the GI50 in the test with A549 was > 100 µM (inactive); with ACHN, > 100 µM (inactive); in the test on DLD-1, > 100 µM (inactive); with HCT-15 it was more than 100 µM; in the test with K562, > 100 µM (inactive); in the test with KM12, > 100 µM (inactive). Further, the GI50 with Malme-3M, in the test on NCI-H460, in the test on OVCAR-4, with OVCAR-5, in the test with OVCAR-8 and in the test with RXF 393 was > 100 µM (inactive) in each case. In addition, the GI50 in the test with SK-MEL-28 is 52.8 µM (inactive); in the test on SW-620, > 100 µM (inactive); in the test with U-251 it was > 100 µM (inactive); with UACC-62, 27.7 µM (inactive).

Source of the values: ChEMBL document CHEMBL1201862, “PubChem BioAssay data set” (2004).
